The source of these data is patent US20210238172.

Read-outs that look alike come from different tables or passages of the source.

For this data set the following is noted: amide bond, HATU/DIEA, NMP, 2 steps.

For “8-Ethyl-10,18-dimethyl-7,20-dioxo-6,7,8,11,14,15,20,21,28,29,30,31-dodecahydrobenzo[4,5]imidazo[1,2-a]benzo[4,5]imidazo[2,1-p]dipyrazolo[5,1-e:4′,3′-l][1,3,6,15,17]pentaazacyclohenicosine-3,24-dicarboxamide”, the ring closure, yield after HPLC (21-membered ring, 92.4 mM, 80.0 °C) was 1.7%.

In turn, “8-ethyl-10,18,30-trimethyl-7,20-dioxo-7,8,11,12,13,14,15,20,21,28,29,30,31,32-tetradecahydro-benzo[4,5]imidazo[2,1-b]benzo[4,5]imidazo[1,2-i]dipyrazolo[5,1-m:4′,3′-t][1,3,6,9,11,14]hexaazacyclodocosine-3,24-dicarboxamide” came in with a ring closure, yield after HPLC (22-membered ring, 68.9 mM, 140.0 °C) of 4.56%.
